According to ChEMBL document CHEMBL4304811, “Development of a Water-Soluble Indolylmaleimide Derivative IM-93 Showing Dual Inhibition of Ferroptosis and NETosis” (ACS Med Chem Lett, 2019):

Experiments:
[1] = tested on: Epidermal growth factor receptor (Homo sapiens), P00533 [UNDEFINED MUTATION]; assay: Binding affinity to human partial length EGFR L747-E749del/A750P mutant expressed in bacterial expression system assessed as residual binding level at 10 uM by Kinomescan method relative to control
[2] = biological target: Cyclin-dependent kinase 13 (Homo sapiens) (UniProt Q14004); assay: Binding affinity to wild-type human partial length CDC2L5 (H675 to S1054 residues) expressed in mammalian expression system assessed as residual binding level at 10 uM by Kinomescan method relative to control
[3] = biological target: Activin receptor type-2B (Homo sapiens) (UniProt Q13705); assay: Binding affinity to wild-type human ACVR2B (H169 to D504 residues) expressed in bacterial expression system assessed as residual binding level at 10 uM by Kinomescan method relative to control
Activin receptor type-2B (Homo sapiens), sequence (Q13705 whole entry, the tested form may be a part): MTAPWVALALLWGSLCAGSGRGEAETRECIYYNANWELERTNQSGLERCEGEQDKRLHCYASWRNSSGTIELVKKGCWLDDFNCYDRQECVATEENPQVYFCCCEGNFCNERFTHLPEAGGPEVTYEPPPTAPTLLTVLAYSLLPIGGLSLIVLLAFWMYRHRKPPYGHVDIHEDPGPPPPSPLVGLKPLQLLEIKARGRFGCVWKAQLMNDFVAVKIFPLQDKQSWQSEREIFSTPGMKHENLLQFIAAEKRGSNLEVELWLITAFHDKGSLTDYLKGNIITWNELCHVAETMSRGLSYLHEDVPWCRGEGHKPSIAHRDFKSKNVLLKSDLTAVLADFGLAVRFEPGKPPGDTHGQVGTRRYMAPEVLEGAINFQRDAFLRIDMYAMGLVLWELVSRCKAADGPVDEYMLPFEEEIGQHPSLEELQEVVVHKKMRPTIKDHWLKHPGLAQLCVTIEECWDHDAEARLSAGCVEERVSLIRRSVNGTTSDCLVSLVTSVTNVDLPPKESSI

[4] = biological target: SRSF protein kinase 3 (Homo sapiens) (UniProt Q9UPE1); assay: Binding affinity to wild-type human partial length SRPK3 (P41 to P567 residues) expressed in bacterial expression system assessed as residual binding level at 10 uM by Kinomescan method relative to control
SRSF protein kinase 3 (Homo sapiens), sequence (Q9UPE1 whole entry, the tested form may be a part): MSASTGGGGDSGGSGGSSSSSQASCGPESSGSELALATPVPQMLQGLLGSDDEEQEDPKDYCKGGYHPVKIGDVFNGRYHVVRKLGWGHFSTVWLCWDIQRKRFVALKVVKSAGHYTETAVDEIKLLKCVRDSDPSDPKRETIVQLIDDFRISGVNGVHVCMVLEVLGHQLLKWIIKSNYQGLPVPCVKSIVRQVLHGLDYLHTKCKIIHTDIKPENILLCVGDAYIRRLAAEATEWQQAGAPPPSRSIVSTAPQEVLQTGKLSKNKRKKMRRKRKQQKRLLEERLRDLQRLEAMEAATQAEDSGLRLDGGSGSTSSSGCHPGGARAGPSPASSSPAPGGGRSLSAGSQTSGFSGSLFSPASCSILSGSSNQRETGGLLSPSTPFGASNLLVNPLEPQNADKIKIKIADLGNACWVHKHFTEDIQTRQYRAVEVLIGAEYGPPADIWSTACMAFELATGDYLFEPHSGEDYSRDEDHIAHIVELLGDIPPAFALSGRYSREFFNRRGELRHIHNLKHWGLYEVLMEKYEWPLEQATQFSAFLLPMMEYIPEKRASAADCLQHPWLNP

[5] = biological target: Serine/threonine-protein kinase Sgk2 (Homo sapiens) (UniProt Q9HBY8); assay: Binding affinity to wild-type human partial length SGK2 (L54 to C427 residues) expressed in mammalian expression system assessed as residual binding level at 10 uM by Kinomescan method relative to control
Serine/threonine-protein kinase Sgk2 (Homo sapiens), sequence (Q9HBY8 whole entry, the tested form may be a part): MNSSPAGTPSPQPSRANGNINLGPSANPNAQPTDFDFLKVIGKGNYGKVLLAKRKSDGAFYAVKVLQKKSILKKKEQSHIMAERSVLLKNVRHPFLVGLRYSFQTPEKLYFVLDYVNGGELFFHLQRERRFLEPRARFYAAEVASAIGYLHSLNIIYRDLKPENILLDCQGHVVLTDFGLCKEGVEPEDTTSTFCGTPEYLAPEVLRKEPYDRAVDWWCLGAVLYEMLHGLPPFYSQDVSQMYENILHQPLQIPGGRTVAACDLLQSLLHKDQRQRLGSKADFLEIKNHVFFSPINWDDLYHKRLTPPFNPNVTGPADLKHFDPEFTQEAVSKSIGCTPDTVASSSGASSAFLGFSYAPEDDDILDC

[6] = biological target: Serine/threonine-protein kinase B-raf (Homo sapiens) (UniProt P15056); assay: Binding affinity to wild-type human partial length BRAF (S429 to E741 residues) expressed in mammalian expression system assessed as residual binding level at 10 uM by Kinomescan method relative to control
[7] = biological target: Death-associated protein kinase 2 (Homo sapiens) (UniProt Q9UIK4); assay: Binding affinity to wild-type human full length DAPK2 (M1 to S370 residues) expressed in bacterial expression system assessed as residual binding level at 10 uM by Kinomescan method relative to control
Death-associated protein kinase 2 (Homo sapiens), sequence (Q9UIK4 whole entry, looked up, the tested form may be a part): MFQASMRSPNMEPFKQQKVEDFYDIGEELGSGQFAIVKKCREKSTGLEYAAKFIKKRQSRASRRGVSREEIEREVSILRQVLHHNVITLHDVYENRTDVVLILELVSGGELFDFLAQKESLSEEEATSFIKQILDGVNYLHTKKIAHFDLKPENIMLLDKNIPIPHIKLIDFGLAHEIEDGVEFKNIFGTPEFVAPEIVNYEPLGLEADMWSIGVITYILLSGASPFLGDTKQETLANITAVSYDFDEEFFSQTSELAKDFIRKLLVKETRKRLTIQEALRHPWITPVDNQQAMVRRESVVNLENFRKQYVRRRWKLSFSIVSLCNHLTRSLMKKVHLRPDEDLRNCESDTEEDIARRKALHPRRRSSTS

[8] = biological target: Serine/threonine-protein kinase 4 (Homo sapiens) (UniProt Q13043); assay: Binding affinity to wild-type human full length MST1 (M1 to F487 residues) expressed in bacterial expression system assessed as residual binding level at 10 uM by Kinomescan method relative to control
Serine/threonine-protein kinase 4 (Homo sapiens), sequence (Q13043 whole entry, the tested form may be a part): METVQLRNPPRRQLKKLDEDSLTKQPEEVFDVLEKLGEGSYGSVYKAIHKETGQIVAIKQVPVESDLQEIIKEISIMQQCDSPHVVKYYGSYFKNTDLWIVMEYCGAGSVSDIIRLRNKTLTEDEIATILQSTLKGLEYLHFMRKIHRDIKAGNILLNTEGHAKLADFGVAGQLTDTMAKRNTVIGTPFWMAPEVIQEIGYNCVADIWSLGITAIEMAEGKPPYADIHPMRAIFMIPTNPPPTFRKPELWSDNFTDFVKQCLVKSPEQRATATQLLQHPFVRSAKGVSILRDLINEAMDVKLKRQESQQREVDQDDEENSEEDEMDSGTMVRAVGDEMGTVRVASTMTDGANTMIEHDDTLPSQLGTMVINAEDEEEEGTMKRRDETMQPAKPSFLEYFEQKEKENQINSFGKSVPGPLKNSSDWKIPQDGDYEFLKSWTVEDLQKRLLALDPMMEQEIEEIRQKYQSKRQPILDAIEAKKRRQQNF

[9] = biological target: Mitogen-activated protein kinase 3 (Homo sapiens) (UniProt P27361); assay: Binding affinity to wild-type human full length ERK1 (M1 to P379 residues) expressed in bacterial expression system assessed as residual binding level at 10 uM by Kinomescan method relative to control
[10] = tested on: Hepatocyte growth factor receptor (Homo sapiens), P08581 [Y1235D]; assay: Binding affinity to human partial length MET Y1235D mutant (D1010 to S1367 residues) expressed in bacterial expression system assessed as residual binding level at 10 uM by Kinomescan method relative to control
[11] = biological target: Tyrosine-protein kinase ABL1 (Homo sapiens) (UniProt P00519); assay: Binding affinity to wild-type human phosphorylated ABL1 (S229 to K512 residues) expressed in mammalian expression system assessed as residual binding level at 10 uM by Kinomescan method relative to control
[12] = biological target: Mitogen-activated protein kinase 8 (Homo sapiens) (UniProt P45983); assay: Binding affinity to wild-type human full length JNK1 (M1 to Q384 residues) expressed in mammalian expression system assessed as residual binding level at 10 uM by Kinomescan method relative to control
Mitogen-activated protein kinase 8 (Homo sapiens), sequence (P45983 whole entry, the tested form may be a part): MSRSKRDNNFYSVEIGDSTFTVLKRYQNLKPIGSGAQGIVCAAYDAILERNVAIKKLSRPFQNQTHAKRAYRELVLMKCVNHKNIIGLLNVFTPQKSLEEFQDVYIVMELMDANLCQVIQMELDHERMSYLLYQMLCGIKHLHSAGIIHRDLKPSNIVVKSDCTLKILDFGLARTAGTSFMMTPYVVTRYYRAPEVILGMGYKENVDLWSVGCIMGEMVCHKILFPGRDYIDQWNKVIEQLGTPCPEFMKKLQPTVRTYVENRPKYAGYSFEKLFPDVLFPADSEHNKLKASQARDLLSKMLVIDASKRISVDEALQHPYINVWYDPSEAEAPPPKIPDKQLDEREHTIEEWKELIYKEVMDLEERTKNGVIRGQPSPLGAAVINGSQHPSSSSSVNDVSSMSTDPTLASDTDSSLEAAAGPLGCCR

[13] = biological target: Serine/threonine-protein kinase 38 (Homo sapiens) (UniProt Q15208); assay: Binding affinity to wild-type human partial length NDR1 (N33 to E449 residues) expressed in mammalian expression system assessed as residual binding level at 10 uM by Kinomescan method relative to control
[14] = biological target: Myosin light chain kinase (Homo sapiens) (UniProt Q32MK0); assay: Binding affinity to wild-type human partial length MLCK (D488 to K800 residues) expressed in bacterial expression system assessed as residual binding level at 10 uM by Kinomescan method relative to control
[15] = biological target: Epidermal growth factor receptor (Homo sapiens) (UniProt P00533); assay: Binding affinity to wild-type human partial length EGFR (R669 to V1011 residues) expressed in bacterial expression system assessed as residual binding level at 10 uM by Kinomescan method relative to control
[16] = biological target: Calcium/calmodulin-dependent protein kinase type IV (Homo sapiens) (UniProt Q16566); assay: Binding affinity to wild-type human partial length CAMK4 (A22 to A322 residues) expressed in bacterial expression system assessed as residual binding level at 10 uM by Kinomescan method relative to control
[17] = biological target: Mitogen-activated protein kinase kinase kinase 1 (Homo sapiens) (UniProt Q13233); assay: Binding affinity to wild-type human partial length MAP3K1 (L1202 to W1512 residues) expressed in mammalian expression system assessed as residual binding level at 10 uM by Kinomescan method relative to control
[18] = biological target: RAC-alpha serine/threonine-protein kinase (Homo sapiens) (UniProt P31749); assay: Binding affinity to wild-type human partial length AKT1 expressed in bacterial expression system assessed as residual binding level at 10 uM by Kinomescan method relative to control
[19] = biological target: Cyclin-dependent kinase 2 (Homo sapiens) (UniProt P24941); assay: Binding affinity to wild-type human full length CDK2 (M1 to L298 residues) expressed in bacterial expression system assessed as residual binding level at 10 uM by Kinomescan method relative to control
[20] = biological target: Megakaryocyte-associated tyrosine-protein kinase (Homo sapiens) (UniProt P42679); assay: Binding affinity to wild-type human full length CTK (M43 to P508 residues) expressed in mammalian expression system assessed as residual binding level at 10 uM by Kinomescan method relative to control
[21] = biological target: Myosin light chain kinase, smooth muscle (Homo sapiens) (UniProt Q15746); assay: Binding affinity to wild-type human full length MYLK (M854 to E1845 residues) expressed in mammalian expression system assessed as residual binding level at 10 uM by Kinomescan method relative to control
[22] = biological target: Proto-oncogene tyrosine-protein kinase ROS (Homo sapiens) (UniProt P08922); assay: Binding affinity to wild-type human partial length ROS1 (A1921 to N2240 residues) expressed in bacterial expression system assessed as residual binding level at 10 uM by Kinomescan method relative to control
Proto-oncogene tyrosine-protein kinase ROS (Homo sapiens), sequence (P08922 whole entry, the tested form may be a part): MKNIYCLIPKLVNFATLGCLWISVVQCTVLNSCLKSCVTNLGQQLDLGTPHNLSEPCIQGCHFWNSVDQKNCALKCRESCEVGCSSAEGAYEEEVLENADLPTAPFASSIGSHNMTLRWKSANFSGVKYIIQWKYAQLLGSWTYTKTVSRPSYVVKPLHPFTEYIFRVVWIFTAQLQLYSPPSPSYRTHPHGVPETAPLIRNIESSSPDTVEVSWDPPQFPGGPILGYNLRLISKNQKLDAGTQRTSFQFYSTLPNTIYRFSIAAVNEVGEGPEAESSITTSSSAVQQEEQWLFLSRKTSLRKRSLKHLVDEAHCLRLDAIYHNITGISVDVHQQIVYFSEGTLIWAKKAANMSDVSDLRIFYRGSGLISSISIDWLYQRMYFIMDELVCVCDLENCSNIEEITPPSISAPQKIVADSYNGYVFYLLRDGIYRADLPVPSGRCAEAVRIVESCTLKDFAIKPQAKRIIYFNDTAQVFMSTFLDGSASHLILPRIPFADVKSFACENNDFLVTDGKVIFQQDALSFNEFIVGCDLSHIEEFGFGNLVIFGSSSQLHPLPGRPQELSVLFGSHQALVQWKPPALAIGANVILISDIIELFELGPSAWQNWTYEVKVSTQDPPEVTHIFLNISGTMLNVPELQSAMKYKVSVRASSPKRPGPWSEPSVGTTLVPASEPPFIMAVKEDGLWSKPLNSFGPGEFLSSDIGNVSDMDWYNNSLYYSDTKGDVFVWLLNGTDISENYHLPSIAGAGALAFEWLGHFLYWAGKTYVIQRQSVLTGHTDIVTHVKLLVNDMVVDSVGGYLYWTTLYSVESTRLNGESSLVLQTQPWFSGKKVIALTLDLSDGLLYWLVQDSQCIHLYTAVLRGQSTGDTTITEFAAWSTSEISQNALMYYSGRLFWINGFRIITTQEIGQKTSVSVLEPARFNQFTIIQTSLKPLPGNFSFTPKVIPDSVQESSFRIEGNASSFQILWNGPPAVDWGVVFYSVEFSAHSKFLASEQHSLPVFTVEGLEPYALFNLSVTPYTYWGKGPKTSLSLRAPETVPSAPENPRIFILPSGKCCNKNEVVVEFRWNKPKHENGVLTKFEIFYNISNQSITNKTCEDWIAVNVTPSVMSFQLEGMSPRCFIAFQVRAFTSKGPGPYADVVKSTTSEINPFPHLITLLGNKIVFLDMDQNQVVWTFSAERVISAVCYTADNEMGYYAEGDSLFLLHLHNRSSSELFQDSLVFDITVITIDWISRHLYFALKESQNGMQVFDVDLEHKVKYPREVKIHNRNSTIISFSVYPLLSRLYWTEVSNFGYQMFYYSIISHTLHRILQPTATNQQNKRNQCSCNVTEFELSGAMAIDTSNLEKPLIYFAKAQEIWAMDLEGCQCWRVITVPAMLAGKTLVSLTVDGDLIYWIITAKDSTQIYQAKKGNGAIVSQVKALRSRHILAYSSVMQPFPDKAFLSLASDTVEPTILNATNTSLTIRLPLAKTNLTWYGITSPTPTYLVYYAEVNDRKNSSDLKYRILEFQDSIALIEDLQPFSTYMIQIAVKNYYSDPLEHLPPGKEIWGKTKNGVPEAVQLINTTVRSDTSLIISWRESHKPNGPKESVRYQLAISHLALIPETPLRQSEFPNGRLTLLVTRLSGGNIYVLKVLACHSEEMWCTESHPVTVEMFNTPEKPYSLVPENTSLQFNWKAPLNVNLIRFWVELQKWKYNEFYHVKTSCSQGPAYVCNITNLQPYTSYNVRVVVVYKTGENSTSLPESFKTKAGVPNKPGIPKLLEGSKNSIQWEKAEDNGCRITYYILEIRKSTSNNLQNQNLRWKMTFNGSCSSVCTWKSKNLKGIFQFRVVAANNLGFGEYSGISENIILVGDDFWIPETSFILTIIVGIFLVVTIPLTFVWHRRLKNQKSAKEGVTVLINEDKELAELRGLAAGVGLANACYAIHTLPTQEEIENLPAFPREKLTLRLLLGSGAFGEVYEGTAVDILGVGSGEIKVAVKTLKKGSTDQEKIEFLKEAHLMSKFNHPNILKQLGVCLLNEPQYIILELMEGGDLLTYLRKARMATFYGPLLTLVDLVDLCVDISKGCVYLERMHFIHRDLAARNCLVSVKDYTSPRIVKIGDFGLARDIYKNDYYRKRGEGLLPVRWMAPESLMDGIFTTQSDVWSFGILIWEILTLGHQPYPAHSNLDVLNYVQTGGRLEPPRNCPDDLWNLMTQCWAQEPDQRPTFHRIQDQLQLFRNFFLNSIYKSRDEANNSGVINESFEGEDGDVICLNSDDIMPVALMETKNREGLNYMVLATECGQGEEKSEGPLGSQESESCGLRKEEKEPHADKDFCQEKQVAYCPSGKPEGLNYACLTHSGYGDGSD

[23] = biological target: Serine/threonine-protein kinase MARK1 (Homo sapiens) (UniProt Q9P0L2); assay: Binding affinity to wild-type human partial length MARK1 (Q30 to T341 residues) expressed in bacterial expression system assessed as residual binding level at 10 uM by Kinomescan method relative to control
[24] = biological target: Mitogen-activated protein kinase kinase kinase 19 (Homo sapiens) (UniProt Q56UN5); assay: Binding affinity to wild-type human partial length YSK4 (T1019 to H1328 residues) expressed in mammalian expression system assessed as residual binding level at 10 uM by Kinomescan method relative to control
[25] = biological target: Dual specificity mitogen-activated protein kinase kinase 6 (Homo sapiens) (UniProt P52564); assay: Binding affinity to wild-type human partial length MEK6 (K36 to D334 residues) expressed in bacterial expression system assessed as residual binding level at 10 uM by Kinomescan method relative to control

Q: How did the Activity [1] turn out when `CC(C)N1C(=O)C(NCCCN(C)C)=C(c2cn(C)c3ccccc23)C1=O.Cl` was run?
A: The Activity was 88%.

Q: And the Activity [2]?
A: Its Activity is 99%.

Q: What about the Activity [3] of the same molecule?
A: The Activity was 96%.

Q: And the Activity [4]?
A: Its Activity is 100%.

Q: And the Activity [5]?
A: The Activity was 82%.

Q: What about the Activity [6] of the same molecule?
A: Its Activity is 89%.

Q: What about the Activity [7] of the same molecule?
A: The Activity was 100%.

Q: What about the Activity [8] of the same molecule?
A: The Activity was 93%.

Q: What about the Activity [9] of the same molecule?
A: The Activity was 87%.

Q: And the Activity [10]?
A: Its Activity is 99%.

Q: And the Activity [11]?
A: Its Activity is 92%.

Q: What about the Activity [12] of the same molecule?
A: The Activity was 91%.

Q: And the Activity [13]?
A: The Activity was 93%.

Q: And the Activity [14]?
A: Its Activity is 89%.

Q: And the Activity [15]?
A: Its Activity is 89%.

Q: And the Activity [16]?
A: Its Activity is 80%.

Q: What about the Activity [17] of the same molecule?
A: Its Activity is 68%.

Q: What about the Activity [18] of the same molecule?
A: The Activity was 95%.

Q: And the Activity [19]?
A: The Activity was 92%.

Q: What about the Activity [20] of the same molecule?
A: The Activity was 83%.

Q: What about the Activity [21] of the same molecule?
A: Its Activity is 75%.

Q: And the Activity [22]?
A: Its Activity is 87%.

Q: What about the Activity [23] of the same molecule?
A: The Activity was 67%.

Q: And the Activity [24]?
A: Its Activity is 96%.

Q: What about the Activity [25] of the same molecule?
A: The Activity was 99%.
